This is an account of results in PMC12807552, “The Synthesis of BODIPY-TKI Conjugates and Investigation of Their Ability to Target the Epidermal Growth Factor Receptor” (Targets (Basel), 2023).

pKd: −log10 of the molar value.

The target in the test is EGFR kinase domain (epidermal growth factor receptor) (Homo sapiens, UniProt P00533). The test can be described thus: biochemical.
EGFR kinase domain (epidermal growth factor receptor), sequence (P00533 695-1210): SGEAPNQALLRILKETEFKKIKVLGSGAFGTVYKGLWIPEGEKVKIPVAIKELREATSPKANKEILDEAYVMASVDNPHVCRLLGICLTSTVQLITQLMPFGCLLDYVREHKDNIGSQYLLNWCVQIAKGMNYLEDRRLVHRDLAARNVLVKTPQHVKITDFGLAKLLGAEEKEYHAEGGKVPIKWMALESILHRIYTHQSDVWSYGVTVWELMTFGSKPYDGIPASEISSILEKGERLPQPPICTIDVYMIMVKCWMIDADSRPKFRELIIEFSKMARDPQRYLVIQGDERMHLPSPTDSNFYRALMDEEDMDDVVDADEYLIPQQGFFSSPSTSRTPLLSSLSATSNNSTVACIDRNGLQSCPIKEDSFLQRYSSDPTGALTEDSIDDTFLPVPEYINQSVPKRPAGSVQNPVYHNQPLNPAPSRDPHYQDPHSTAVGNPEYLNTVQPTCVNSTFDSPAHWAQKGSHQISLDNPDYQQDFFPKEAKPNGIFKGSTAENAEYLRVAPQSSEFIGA

`COCCOc1cc2ncnc(Nc3cccc(-c4cn(CCOCCOCCOCCNC(=S)Nc5ccc(-c6c7ccccc7c7n6[B-](F)(F)[N+]6=C(c8ccc(N=C=S)cc8)c8ccccc8C6=C7c6cc(OC)cc(OC)c6)cc5)nn4)c3)c2cc1OCCOC` [compound 5, BODIPY-monoTKI] gave a pKd of 5.09.

A word on the pKd: it is the Kd on a negative log10 scale, so that one unit is a factor of ten. A high value points to a small Kd.
